The values below come from US8846571B2, “Herbicidal compositions containing benzoylpyrazole compounds” (priority 2008, dated 2014).

The subject of one assay is crabgrass. Put plainly: Foliar treatment pot test (Example 1), visual growth inhibition of crabgrass. The format is in vivo. An excerpt: (§1) When the herbicidal activity in a case where two active ingredients are combined, is larger than the simple sum of the respective herbicidal activities of the two active ingredients (the expected activity), it is called a synergistic effect. The activity expected by the combination of two active ingredients can be calculated as follows (Colby S. R., “Weed”, vol. 15, p. 20-22, 1967). E=α+β−(α×β÷100) where
(§2) Upland field soil was put into a 1/1,000,000 hectare pot, and seeds of various plants were sown. When the respective plants reached predetermined leaf stage, herbicidal compositions in predetermined amounts were diluted with water in an amount corresponding to 300 L/ha and applied for foliar treatment by a small sprayer.
(§3) Further, in accordance with the above Colby's formula, the growth inhibition rate (calculated value) was calculated. In Tables, with respect to the compound Q, Compound Nos. in Table 1 are described, and with respect to other herbicidal compounds, common names are described.

The test system of the next assay is velvetleaf. Put plainly: Foliar treatment pot test (Example 1), visual growth inhibition of velvetleaf. The format is in vivo, velvetleaf (Abutilon theophrasti MEDIC.).
Source text: as §1, §2, §3

Assay [1] is described as follows: Foliar treatment pot test (Example 1), plant name misprinted as 'days after treatment'. Type of assay: in vivo. Particulars: 4.0-5.0 leaf stage.
Source text: as §1, §2, §3

The test system of the next assay is prickly sida. Nature of the assay: Foliar treatment pot test (Example 1), visual growth inhibition of prickly sida. The format is in vivo, prickly sida (Side spinosa L.). The settings on record: read-out: Growth inhibition rate (%) Measured value.
Source text: as §1, §2, §3

For a further assay, the system named is various plants. Nature of the assay: Foliar treatment pot test (Example 1) on various plants. The format is in vivo. Particulars: Setaria, 336 h, fiant foxtail, 4.0-5.0 leaf stage, 14 days after treatment, read-out: Growth inhibition rate (%) of fiant foxtail, Measured value.
Source text: as §1, §2, §3

Where [2] appears, read: 504 h, 21 days after treatment, read-out: Growth inhibition rate (%) Measured value.

Like-named read-outs stand apart in the source and are kept apart here.

Take `CCc1cccc(C)c1N(C(=O)CCl)[C@@H](C)COC` [S-Metolachlor, S-metolachlor]: in the assay on crabgrass (4.0-5.0 leaf stage, 14 days after treatment, 150 g/ha), the “Growth inhibition rate (%) of crabgrass, Measured value” was 0%. For the same compound, the “Growth inhibition rate (%) Measured value” worked out at 0% with crabgrass (crabgrass 4.0-5.1 leaf stage, 21 days after treatment, 300 g/ha); 0% in the assay with crabgrass (crabgrass 5.0-6.0 leaf stage, 14 days after treatment, 800 g/ha); 0% in the assay with velvetleaf (velvetleaf 3.0-3.5 leaf stage, 21 days after treatment, 300 g/ha).
For `CCNc1nc(Cl)nc(NC(C)(C)C)n1` [Terbuthylazine, terbuthylazine], the inhibition at 250 g/ha in assay [1] (192 h, 8 days after treatment, 250 g/ha, read-out: Growth inhibition rate (%) Measured value) came out at 10%. In addition, the inhibition at 125 g/ha in assay [1] (setting [2]) worked out at 0%.
On to `CCOCCN(C(=O)CCl)C(=C(C)C)c1ccccc1` [Pethoxamid, pethoxamid, reference compound], for which the “Growth inhibition rate (%) Measured value” worked out at 0% with crabgrass (crabgrass 4.4-5.0 leaf stage, 13 days after treatment, 200 g/ha) and 0% in the assay on velvetleaf (velvetleat 3.3-4.2 leaf stage, 13 days after treatment, 200 g/ha).
As to `COC(=O)c1sccc1S(=O)(=O)NC(=O)Nc1nc(C)nc(OC)n1` [Thifensulfuron-methyl], the inhibition at 5 g/ha in assay [1] (504 h, 21 days after treatment, 5 g/ha, read-out: Growth inhibition rate (%) of days after treatment, Measured value) turned out to be 0%.
As to `CCNc1nc(Cl)nc(NC(C)C)n1` [Atrazine, atrazine], the inhibition at 63 g/ha in the assay with prickly sida (504 h, prickly sida 3.0-3.3 leaf stage, 21 days after treatment, 63 g/ha) came out at 30%. The inhibition at 125 g/ha with prickly sida (504 h, prickly sida 3.0-3.3 leaf stage, 21 days after treatment, 125 g/ha) was determined as 45%; in assay [1] (setting [2]), 0%.
Take `COc1c(Cl)ccc(Cl)c1C(=O)O` [Dicamba, dicamba]: the inhibition at 200 g/ha in assay [1] (336 h, 14 days after treatment, 200 g/ha, read-out: Growth inhibition rate (%) Measured value) was determined as 0%.
In the case of `CCOC(=O)OC(C)Oc1c(C(=O)c2ccc(S(C)(=O)=O)c(OCCOC)c2C)cnn1C` (stereo not drawn) [NO. 2], the “Growth inhibition rate (%) Measured value” with velvetleaf (velvetleaf 4.0-4.3 leaf stage, 22 days after treatment, 3.75 g/ha) was 0%.
For `N.O=C(O)CNCP(=O)(O)O` [Glyphosate-ammonium, glyphosate-ammonium], in the assay on crabgrass (crabgrass 5.0-5.5 leaf stage, 21 days after treatment, 100 g/ha), the “Growth inhibition rate (%) Measured value” came out at 10%.
For `COC(=O)c1c(Cl)nn(C)c1S(=O)(=O)NC(=O)Nc1nc(OC)cc(OC)n1` [Halofulfuron-methyl], the “Growth inhibition rate (%) of crabgrass, Measured value” in the assay on crabgrass (5.0-5.5 leaf stage, 14 days after treatment, 20 g/ha) is recorded as 0%.
As for `CCn1ncc(C(=O)c2ccc(S(C)(=O)=O)c(OCCOC)c2C)c1OC(C)OC(=O)OC` (stereo not drawn) [NO. 4, 1-(1-ethyl-4-(3-(2-methoxyethoxy)-2-methyl-4-(methylsulfonyl)benzoyl)-1H-pyrazol-5-yloxy)ethyl methyl carbonate], the inhibition at 5 g/ha came out at 90% with crabgrass (Digitaria sanguinalis, foliar, 336 h, crabgrass 3.5-4.3 leaf stage, 14 days after treatment, 5 g/ha, read-out: Growth inhibition rate (%) Measured value) and 94% with velvetleaf (Abutilon theophrasti, foliar, 504 h, velvetleaf 3.1-3.4 leaf stage, 21 days after treatment, 5 g/ha, read-out: Growth inhibition rate (%) Measured value). The inhibition at 15 g/ha worked out at 85% in the assay with crabgrass (Digitaria sanguinalis, foliar, 552 h, 4.0-5.1 leaf stage, 23 days after treatment, 15 g/ha, read-out: Growth inhibition rate (%) of crabgrass, Measured value); 73% in the assay on velvetleaf (Abutilon theophrasti, foliar, 336 h, 3.0-4.0 leaf stage, 14 days after treatment, 15 g/ha, read-out: Growth inhibition rate (%) of velvetleaf, Measured value); 75% in the assay with velvetleaf (Abutilon theophrasti, foliar, 504 h, velvetleaf 3.8-4.4 leaf stage, 21 days after treatment, 15 g/ha, read-out: Growth inhibition rate (%) Measured value); 89% in the assay on velvetleaf (Abutilon theophrasti, foliar, 528 h, velvetleaf 3.3-3.8 leaf stage, 22 days after treatment, 15 g/ha, read-out: Growth inhibition rate (%) Measured value); 93% with velvetleaf (Abutilon theophrasti, foliar, 552 h, 3.0 to 3.5 leaf stage, 23 days after treatment, 15 g/ha, read-out: Growth inhibition rate (%) of velvetleaf, Measured value); 93% with velvetleaf (Abutilon theophrasti, foliar, 576 h, 3.2-4.1 leaf stage, 24 days after treatment, 15 g/ha, read-out: Growth inhibition rate (%) of velvetleaf, Measured value). For the same compound, the “Growth inhibition rate (%) of velvetleaf, Measured value” with velvetleaf (3.0-4.0 leaf stage, 14 days after treatment, 15 g/ha) was determined as 80%. The inhibition at 7 g/ha was found to be 75% in the assay on velvetleaf (Abutilon theophrasti, foliar, 552 h, 3.0-3.5 leaf stage, 23 days after treatment, 7 g/ha, read-out: Growth inhibition rate (%) of velvetleaf, Measured value); 60% in assay [1] (504 h, 21 days after treatment, 7 g/ha, read-out: Growth inhibition rate (%) of days after treatment, Measured value); 75% with various plants (7 g/ha). The inhibition at 75 g/ha in the assay with prickly sida (480 h, prickly sida 1.5-2.4 leaf stage, 20 days after treatment, 75 g/ha) came to 55%. Besides, the inhibition at […] in assay [1] (504 h, 21 days after treatment, 3.5 g/ha, read-out: Growth inhibition rate (%) of days after treatment, Measured value) came out at 40%.
For the compound `CS(=O)(=O)c1ccc(C(=O)C2C(=O)CCCC2=O)c([N+](=O)[O-])c1` [Mesotrione], in assay [1] (504 h, 21 days after treatment, 15 g/ha, read-out: Growth inhibition rate (%) of days after treatment, Measured value), the inhibition at 15 g/ha is 5%.
On to `CCCCCCCCSC(=O)Oc1cc(Cl)nnc1-c1ccccc1` [Pyridate, pyridate, reference compound], for which the inhibition at 100 g/ha in assay [1] (504 h, 21 days after treatment, 100 g/ha, read-out: Growth inhibition rate (%) of days after treatment, Measured value) turned out to be 0%; in the assay with various plants (100 g/ha) it was 0%.
